From the CheMixHub ionic liquid set
± gives the uncertainty stated by the source.

Assay: xn = mol fraction of the nth substance listed
Conditions: 100 kPa

## CC[n+]1ccn(C)c1.O=C([O-])C(F)(F)F + OCC(O)CO
293.15 K, x1 = 0.002
  viscosity: 1382 ± 65 mPa·s
293.15 K, x1 = 0.013
  viscosity: 1264 ± 58 mPa·s
293.15 K, x2 = 0.202
  viscosity: 47 ± 1.1 mPa·s
293.15 K, x2 = 0.3
  viscosity: 58 ± 1.3 mPa·s
293.15 K, x2 = 0.399
  viscosity: 65.5 ± 1.6 mPa·s
293.15 K, x2 = 0.5
  viscosity: 86 ± 2.3 mPa·s
293.15 K, x2 = 0.6
  viscosity: 115.9 ± 3.3 mPa·s
293.15 K, x2 = 0.7
  viscosity: 177.8 ± 5.5 mPa·s
293.15 K, x2 = 0.8
  viscosity: 316 ± 11 mPa·s
293.15 K, x2 = 0.9
  viscosity: 639 ± 25 mPa·s
293.15 K, x2 = 0.956
  viscosity: 983 ± 43 mPa·s
293.15 K, x2 = 0.979
  viscosity: 1188 ± 54 mPa·s
298.15 K, x1 = 0.002
  electrical conductivity: 0.000383 ± 1.6e-05 S/m
  viscosity: 893 ± 38 mPa·s
298.15 K, x1 = 0.004
  electrical conductivity: 0.00069 ± 3e-05 S/m
298.15 K, x1 = 0.013
  electrical conductivity: 0.00211 ± 9e-05 S/m
  viscosity: 818 ± 34 mPa·s
298.15 K, x2 = 0.202
  electrical conductivity: 0.81 ± 0.03 S/m
  viscosity: 38.2 ± 0.9 mPa·s
298.15 K, x2 = 0.3
  electrical conductivity: 0.71 ± 0.03 S/m
  viscosity: 46.3 ± 1.1 mPa·s
298.15 K, x2 = 0.399
  electrical conductivity: 0.57 ± 0.02 S/m
  viscosity: 51.5 ± 1.2 mPa·s
298.15 K, x2 = 0.5
  electrical conductivity: 0.436 ± 0.018 S/m
  viscosity: 66.1 ± 1.7 mPa·s
298.15 K, x2 = 0.6
  electrical conductivity: 0.305 ± 0.013 S/m
  viscosity: 86.6 ± 2.3 mPa·s
298.15 K, x2 = 0.7
  electrical conductivity: 0.184 ± 0.008 S/m
  viscosity: 128.2 ± 3.6 mPa·s
298.15 K, x2 = 0.8
  electrical conductivity: 0.08 ± 0.004 S/m
  viscosity: 218.7 ± 6.8 mPa·s
298.15 K, x2 = 0.9
  electrical conductivity: 0.023 ± 0.001 S/m
  viscosity: 427 ± 15 mPa·s
298.15 K, x2 = 0.956
  electrical conductivity: 0.0076 ± 0.0003 S/m
  viscosity: 643 ± 25 mPa·s
298.15 K, x2 = 0.979
  electrical conductivity: 0.00328 ± 0.00014 S/m
  viscosity: 772 ± 32 mPa·s
303.15 K, x1 = 0.002
  viscosity: 592 ± 22 mPa·s
303.15 K, x1 = 0.013
  viscosity: 544 ± 20 mPa·s
303.15 K, x2 = 0.202
  viscosity: 31.3 ± 0.7 mPa·s
303.15 K, x2 = 0.3
  viscosity: 37.5 ± 0.9 mPa·s
303.15 K, x2 = 0.399
  viscosity: 41.1 ± 1 mPa·s
303.15 K, x2 = 0.5
  viscosity: 51.7 ± 1.3 mPa·s
303.15 K, x2 = 0.6
  viscosity: 66.1 ± 1.7 mPa·s
303.15 K, x2 = 0.7
  viscosity: 94.6 ± 2.5 mPa·s
303.15 K, x2 = 0.8
  viscosity: 155.2 ± 4.4 mPa·s
303.15 K, x2 = 0.9
  viscosity: 291.2 ± 9.3 mPa·s
303.15 K, x2 = 0.956
  viscosity: 432 ± 15 mPa·s
303.15 K, x2 = 0.979
  viscosity: 514 ± 19 mPa·s
313.15 K, x1 = 0.002
  electrical conductivity: 0.0012 ± 5e-05 S/m
  viscosity: 280.8 ± 8.9 mPa·s
313.15 K, x1 = 0.004
  electrical conductivity: 0.00217 ± 9e-05 S/m
313.15 K, x1 = 0.013
  electrical conductivity: 0.0066 ± 0.0003 S/m
  viscosity: 259.8 ± 8 mPa·s
313.15 K, x2 = 0.202
  electrical conductivity: 1.37 ± 0.06 S/m
  viscosity: 22 ± 0.5 mPa·s
313.15 K, x2 = 0.3
  electrical conductivity: 1.23 ± 0.05 S/m
  viscosity: 25.7 ± 0.6 mPa·s
313.15 K, x2 = 0.399
  electrical conductivity: 1.02 ± 0.04 S/m
  viscosity: 27.5 ± 0.6 mPa·s
313.15 K, x2 = 0.5
  electrical conductivity: 0.84 ± 0.03 S/m
  viscosity: 33.4 ± 0.8 mPa·s
313.15 K, x2 = 0.6
  electrical conductivity: 0.63 ± 0.03 S/m
  viscosity: 40.8 ± 1 mPa·s
313.15 K, x2 = 0.7
  electrical conductivity: 0.411 ± 0.017 S/m
  viscosity: 55 ± 1.4 mPa·s
313.15 K, x2 = 0.8
  electrical conductivity: 0.199 ± 0.008 S/m
  viscosity: 84.1 ± 2.1 mPa·s
313.15 K, x2 = 0.9
  electrical conductivity: 0.065 ± 0.003 S/m
  viscosity: 146.8 ± 4 mPa·s
313.15 K, x2 = 0.956
  electrical conductivity: 0.0231 ± 0.001 S/m
  viscosity: 210 ± 6.1 mPa·s
313.15 K, x2 = 0.979
  electrical conductivity: 0.0103 ± 0.0004 S/m
  viscosity: 246.5 ± 7.5 mPa·s
